Experimental data published in patent US10125105B2, “Triazabutadienes as cleavable cross-linkers” (ARIZONA BOARD OF REGENTS ON BEHALF OF THE UNIVERSITY OF …, priority 2014, dated 2018).

Tests used:
[1] = pH-dependent decomposition to diazonium salts in buffers by NMR; type: physicochemical; conditions: phosphate/citrate buffers pH 4-7, phosphate buffer pH 6-8
Description: (§1) For decomposition experiments, buffers were made to the appropriate pH in a 9:1 mix of H2O:D2O. These solutions were added to the compound being assayed such that the buffer capacity was at least 10 fold the concentration of the compound. Some experiments used 5 mg compound in 0.5 mL of buffer. These were immediately inserted into an NMR instrument and scans were taken at even time intervals to calculate the half-life of the compound based on integration.
As mentioned above, Compound 6c was reasonably stable in pure D20. Upon adjusting the pH to 5 with HCl, a rapid initial consumption of Compound 6c to Compound 7 (see FIG. 6E) and a benzenediazonium salt was noted. After this initial burst of reactivity, a slowing and apparent arresting of the reaction was noted. At this pH the hydronium was the limiting reagent. All future reactions were run in buffers with a buffer capacity sufficient to maintain a large excess of hydronium ions. The experiments were performed in 90:10 H2O:D2O buffered solutions to minimize considerations of pH vs. pD. The decomposition to diazonium salts and Compound 7 was measured as a function of pH in phosphate/citrate buffers from pH 4-7 and in a phosphate buffer from pH 6-8. All runs provided linear correlations of concentration and time, indicating a pseudo-zero order reaction (first order with respect to hydronium ion with a large excess of hydronium ions). […]

[2] = Stability in D2O / water in the dark by NMR; type: physicochemical
Description: as §1
To render the triazabutadiene water-soluble, methyl imidazole was alkylated with propane sultone to provide the Zwitterionic NHC precursor Compound 5a (see FIG. 6E). […] Compound 6a was highly colored, so its pH dependence was studied using UV/Vis. The reactions were not only pH-, but also scan-frequency dependent. […] Even in the dark it was unstable, but not in the diazonium-forming way. Both Compound 6b and a more hindered mesityl (Mes) substituted Compound 6c (see FIG. 6E) were synthesized to stabilize what was initially considered to be a rearrangement pathway that could be blocked by steric repulsion. […] It is not yet clear that the hypothesis of a simple rearrangement was correct. […]
As mentioned above, Compound 6c was reasonably stable in pure D20. […] The decomposition to diazonium salts and Compound 7 was measured as a function of pH in phosphate/citrate buffers from pH 4-7 and in a phosphate buffer from pH 6-8. […]

centre of sigmoidal correlation between decomposition rate and buffer pH [1]: 6 pH | compound consumed after 24 hours ([2]; D2O, in the dark, room temperature, NMR): less than 10% | compound consumed after 6 hours ([2]; non-buffered 90:10 H2O:D2O solution): > 7%
Structure (SMILES): Cc1cc(C)c(-n2ccn(CCCS(=O)(=O)[O-])c2=NN=Nc2ccccc2)c(C)c1.[K+] [Compound 6c, Potassium 3-(3-mesityl-2-(phenyltriaz-2-en-1-ylidene)-2,3-dihydro-1H-imidazol-1-yl) propane-1-sulfonate]
